Here are results for 13 compounds from patent US5827881A, “Diesters of carbonic acid endowed with antiviral and anti-inflammatory activity” (Italfarmaco S.P.A., priority 1994, dated 1998).

The subject of assay [1] is 8E51 Cells permanently infected with LAV (Lymphotropic Adenopathy Virus) and MOLT3 cells. Description: Antiviral activity: syncytia formation inhibition (8E51 cells infected with LAV co-incubated with MOLT3 cells). The assay is classed as cell-based. Conditions: Homo sapiens, MOLT-3. The procedure: The antiviral activity of the compound of the invention was evaluated by the test of the syncytia formation inhibition, according to the procedure reported hereinbelow.
8E51 Cells permanently infected with LAV (Lymphotropic Adenopathy Virus) defective of the po1 gene, and MOLT3 cells (CD4+ human T-lymphoblastoid strain), cultured in RPMI 1640 medium with 10% calf fetal serum were co-incubated in a ratio of 1:2, at a concentration of 10^6 cells/ml, and put in 96-conic shaped bottom wells Microtiter plates. The cells were added with some compounds representative of the invention suitably diluted and, after 30 minutes at 37° C., the whole was centrifuged to obtain a sediment. The […] was incubated for further 2 hours at 37° C., then put in square-bottomed wells. The syncytia (10-100 times bigger than the starting cells) were counted with an optic microscope. In the controls about 100-200 syncytia/well could be seen.

Assay [2] concerns human TNF (Tumor Necrosis Factor) citotoxicity on LM cells (murine fibroblast strain). Description: In vitro anti-inflammatory activity: inhibition of the citotoxicity induced by human TNF on a murine fibroblast strain (LM cells, MTT). The assay is classed as cell-based. Conditions: Mus musculus; for inhibition at 100 µg/mL: compound 100 μg/ml; for inhibition at 10 µg/mL: compound 10 μg/ml. Here is the method:
In vitro anti-inflammatory activity
In a 96-square bottomed wells plate 15.000 LM cells (Rubin. B. Y. et al., J.Exp. Med., 162:1099, 1985) were inseminated each well (100 μl) in complete RPMI medium (Flow Lab., Hertz. GB). Each well was added with 50 μl of a solution of a compound to be tested at the due concentration, and 50 μl of a solution of TNF at the due concentration. After 2 days, each well was added with 40 μl of a solution of MTT [3-(4,5-dimethylthiazol-2-yl)-2,5-diphenyltetrazolium bromide], and the whole was incubated at 37° C. for 4 hours, then the content of the wells was sucked up, added with 200 μl/well of dimethylsulfoxide to dissolve the blue crystals of formazane formed because of the cell activity, then the optical density values were read by a reader with a 570 nm filter. […] The optical density values are directly proportional to the inhibitory activity performed by the compounds of the invention against TNF.

Assay [3] concerns Carrageenan-induced oedema. Description: Carrageenan-induced oedema (acute inflammation). The assay is classed as in vivo. The settings on record: oral; for % of inhibition (reduction of the oedema), 1 hour: 1 hour after carrageenan; for % of inhibition (reduction of the oedema), 3 hours: 3 hours after carrageenan; for % of inhibition (reduction of the oedema), 5 hours: 5 hours after carrageenan. Here is the method: In vivo anti-inflammatory activity: models of acute inflammation
A. Carrageenan-induced oedema The test is disclosed, inter alia, by Blake, D. R. et al., Ann. Rheum. Dis., 43, 89-93, 1983. The animals were orally administered with 10 or 30 mg/kg doses of the compounds of the invention 1 hour before the injection of carrageenan. The condition of the oedema was checked 1, 3 and 5 hours after said injection. In Table 3 the percentage of reduction of the oedema is set forth.

Where [4] appears, read: TNF 1 ng/ml, read-out: % of inhibition, TNF (1 ng/ml).
Setting [5] is: TNF 5 ng/ml, read-out: % of inhibition, TNF (5 ng/ml).

Read-outs that look alike come from different tables or passages of the source.

For the compound `CCCCN(CCCC)[C@@H]1CCCC[C@H]1OC(=O)OCc1cccnc1` (relative stereo) [4, C]], in assay [1], the inhibition at 50 µM is 18% and the inhibition at 100 µM came out at 28%. The inhibition at 100 µg/mL in assay [2] (setting [4]) was 23%.

As for `CCCCN1CCC(COC(=O)OCC2CCN(CCCC)CC2)CC1` [1, E]], in assay [1], the inhibition at 25 µM was determined as 56.5%, the inhibition at 50 µM is 70% and the inhibition at 100 µM amounted to 79%. In assay [1] (200 μM), the inhibition at 200 µM worked out at 97%. In addition, in assay [2] (setting [4]), the inhibition at 10 µg/mL is 45%.

With `CCCCN(CCCC)[C@@H]1CCCC[C@H]1OC(=O)OCC1CCCN(C)C1` (stereo partly drawn) [5, C]], in assay [1], the inhibition at 50 µM stood at 22% and the inhibition at 100 µM was 23%. Moreover, in assay [2] (setting [4]), the inhibition at 10 µg/mL was 73% and the inhibition at 100 µg/mL was 36%. Besides, in assay [2] (setting [5]), the inhibition at 10 µg/mL came out at 21% and the inhibition at 100 µg/mL came out at 30%.

In the case of `CCCCN(CCCC)CCC(C)OC(=O)OC(C)CCN(CCCC)CCCC` (stereo not drawn) [8, D]], the inhibition at 12.5 µM in assay [1] (12.5 μM) worked out at 33%. Moreover, in assay [1], the inhibition at 25 µM is 49%, the inhibition at 50 µM came out at 55% and the inhibition at 100 µM is 27%. In addition, in assay [2] (setting [4]), the inhibition at 10 µg/mL was found to be 100% and the inhibition at 100 µg/mL is 100%. In assay [2] (setting [5]), the inhibition at 10 µg/mL was 56% and the inhibition at 100 µg/mL is 82%.

For the compound `CCCCN(CCCC)CCCC(C)OC(=O)OC(C)CCCN(CCCC)CCCC` (stereo not drawn) [10, C]], in assay [1], the inhibition at 25 µM came out at 29.5% and the inhibition at 50 µM was determined as 45.5%. Moreover, in assay [2] (setting [4]), the inhibition at 10 µg/mL was found to be 100% and the inhibition at 100 µg/mL turned out to be 100%. In assay [2] (setting [5]), the inhibition at 10 µg/mL worked out at 73% and the inhibition at 100 µg/mL was 95%. In assay [3] (10 mg/kg), the “% of inhibition (reduction of the oedema), 1 hour” value is reported as 26.1% and the “% of inhibition (reduction of the oedema), 3 hours” value worked out at 10%. Further, in assay [3] (30 mg/kg), the “% of inhibition (reduction of the oedema), 1 hour” value was 13%; the “% of inhibition (reduction of the oedema), 3 hours” value is listed as 43%; the “% of inhibition (reduction of the oedema), 5 hours” value is reported as 31.3%.

With `CCCCN(CCCC)CCCOC(=O)OC(C)CCCN(CCCC)CCCC` (stereo not drawn) [12, B]], the inhibition at 10 µg/mL in assay [2] (setting [4]) turned out to be 68%; in assay [2] (setting [5]), 50%. The inhibition at 100 µg/mL in assay [2] (setting [4]) came to 65%; in assay [2] (setting [5]), 62%.

Regarding `CCN(CC)CCCCCCOC(=O)OCCCCCCN(CC)CC` [13, E]], in assay [1], the inhibition at 50 µM was 27.5% and the inhibition at 100 µM stood at 43.5%. Also, in assay [2] (setting [4]), the inhibition at 10 µg/mL amounted to 55% and the inhibition at 100 µg/mL worked out at 45%. For the same compound, in assay [2] (setting [5]), the inhibition at 100 µg/mL was determined as 21%.

With `CCCCN(CCCC)CCCCCOC(=O)OCCCCCN(CCCC)CCCC` [14, E]], the inhibition at 100 µg/mL worked out at 100% in assay [2] (setting [4]) and 59% in assay [2] (setting [5]).

As to `CN(CCCOC(=O)OCCCN(C)Cc1ccccc1)Cc1ccccc1` [16, D]], the inhibition at 100 µM in assay [1] came out at 27%. In assay [2] (setting [5]), the inhibition at 100 µg/mL came out at 21%.

For the compound `O=C(OCCCN(Cc1ccccc1)Cc1ccccc1)OCCCN(Cc1ccccc1)Cc1ccccc1` [17, D]], the inhibition at 100 µM in assay [1] is 19%.

As for `CC(C)N(CCCCOC(=O)OCCCCN(C(C)C)C(C)C)C(C)C` [18, D]], in assay [1], the inhibition at 50 µM was found to be 55% and the inhibition at 100 µM was found to be 63%. Moreover, the inhibition at 100 µg/mL in assay [2] (setting [4]) is 17%. In assay [3] (30 mg/kg), the “% of inhibition (reduction of the oedema), 3 hours” value is recorded as 27% and the “% of inhibition (reduction of the oedema), 5 hours” value worked out at 28.7%.

With `CCCCN(CCCC)CCCOC(=O)OCCCN(CCCC)CCCC` [19, D]], in assay [2] (setting [4]), the inhibition at 10 µg/mL was determined as 17% and the inhibition at 100 µg/mL came out at 48%.

As to `CCCCN(CCCC)CCCC(CC)OC(=O)OC(CC)CCCN(CCCC)CCCC` (stereo not drawn) [38, E]], in assay [3] (10 mg/kg), the “% of inhibition (reduction of the oedema), 1 hour” value came to 22.5%; the “% of inhibition (reduction of the oedema), 3 hours” value is 15%; the “% of inhibition (reduction of the oedema), 5 hours” value was 20.5%.
